Results: patent publication US7871978B2, “Bone tropic peptides” (University of Virginia Patent Foundation, priority 2004, dated 2011)

Tests used:
prostate cancer cells = assay: Chimeric tumors of killer-gene mesenchymal cells and prostate cancer cells treated with prodrug; type: in vivo, immune deficient rats
Description: Further experiments were carried out exploiting the phenomenon of mesenchymal cell homing to skeletal tissues. Cells transduced with thymidine kinase or cytidine deaminase, killer genes that can be expressed under the influence of a prodrug, lead to a cell kill effect on neighboring prostate cancer cells in a co-culture system in vitro. In vivo, the mesenchymal cells and prostate cancer cells were co-injected into subcutaneous sites in immune deficient rats. […] Therefore, a cell-based gene delivery system may be useful to pursue as potential therapy for metastatic cancer, particularly prostate cancer cells that have spread to bone.

LNCaP cells = assay: Prostate cancer cell adhesion to BMEC: LNCaP; type: cell-based; conditions: FIG. 8; preliminary results
Description: (§1) FIG. 8 is a graphic representation of the effects of various peptides on altering cellular adhesion to BMEC cells in vitro. LNCaP cells were compared directly to C4-2 cells for the ability of specific phage-derived peptides to alter cellular adhesion to BMEC cells in vitro. Adhesion was measured at […]. C=control (no peptide). The ordinate represents percent of acid precipitable counts bound and the abscissa indicated the cells treated and the peptides used.
(§2) The phage-derived bone-targeting peptides isolated by biopanning were tested for their ability to alter the adhesion of prostate cancer cells to a human bone marrow endothelial cell line (see FIG. 8). In this assay, LNCaP cells were compared directly to the more metastatic, bone colonizing derivative, C4-2.

[1] = test system: Unicortical femoral defects; assay: Peptide-mediated osteogenesis in cortical bone defects (Example 8); type: in vivo, Fisher 344 rats; conditions: 100 mM peptide in gelfoam, two weeks postoperatively; for Effectiveness at stimulating osteogenesis and cortical bone repair: versus gelfoam+PBS
Description: In an in vivo study, all 13 peptides at a concentration of 100 mM were tested for their ability to potentiate osteogenesis. A gelfoam cylinder 1.5 mm in diameter 2 mm in length was used as carrier for the peptides. Unicortical femoral defects 1.5 mm in diameter were created bilaterally in Fisher 344 rats; the left femoral defect was filled with gelfoam+PBS (Control), and the right femur with gelfoam+peptide. The samples were harvested and examined two weeks postoperatively. To examine the effect of peptide concentration on cortical bone regeneration, peptide L7 (SEQ ID NO:5) was used at 1, 5, and 20 mM. […] The time course of cortical bone repair with 20 mM L7 was examined at 5, 10, 15, and 20 days.

[2] = test system: prostate cancer cells (CaP); assay: Prostate cancer (CaP) cell adhesion to BMEC, cell line not distinguished; type: cell-based; conditions: 50 μM and 100 μM tested
Description: as §1, §2
This observation will be examined further and exploited by the aims of this proposal to identify the binding partners of nucleolin in prostate cancer cells as well as to investigate bone tropic peptides as potential inhibitors of prostate cancer metastasis.

[3] = test system: bovine aortic endothelial cells; assay: Effect of peptides on adherent bovine aortic endothelial cells on fibronectin or collagen; type: cell-based; conditions: for Effect on adherent BAEC (Experiment 1): 0.1M biotinylated peptide, 1 hour, cells adhered four hours on fibronectin or collagen
Description: Peptides from the phage display project were added to bovine aortic endothelial cells in culture. The endothelial cells had adhered to a surface coated with collagen or with fibronectin.
Experiment 1: Bovine aortic endothelial cells were plated on glass slides that were coated either fibronectin or collagen. The cell density was 5,000 cells/well. After the cells adhered for four hours, 0.1M of biotinylated peptide was added to each well. The following peptides were used: L1, L2, L5, L6, L7, L12, L13, L14, L19, R1, R3, and R8.
To perform this experiment, the media was removed and the cells were rinsed with 1×PBS plus 1% BSA three times. Peptides were diluted in 1×PBS plus 1% BSA, added to cells and incubated for 1 hour. The cells were rinsed three times with 1% BSA in PBS, and fixed with 2% parafomaldehyde. Aldehyde groups were blocked with 0.2 M HCl-glycine in PBS, the cells were rinsed three times with 1% BSA in PBS and ExtrAvidin-FITC (1:200 dilution) was added and incubated overnight at 4° C. The cells were rinsed three times with 1% BSA in PBS. The chambers and the gasket were removed from each slide, Vectashield was added, covered and viewed on a Nikon microscope. Images were acquired using a Coolsnap digital camera and Metavue software. […]
Experiment 3: The cells were adherent for about 6 hours and peptides at various concentrations were added to the cells. The concentrations of each of the peptides used in this experiment were: 0.1M, 0.01M, 0.001M and 0.0001M biotinylated peptide. The following peptides were tested: L1, L5, L6, L7, L13, L14, R1, R3, R8, DIP1 and PBS control (SEQ ID NOs:1, 3, 4, 5, 8, 9, 11, 13, 14, and 29).

bone and bone marrow = assay: In vivo biopanning with 12-mer peptide phage display library; parameters: species or system BALB/c mice; conditions: for PERCENT FREQUENCY: phage eluted from bone and bone marrow; for PHAGE SEQUENCE FREQUENCY (number of times the sequence was found in a group of plaques): phage eluted from bone and bone marrow after repeated rounds
Source text: The Ph.D.-12 Phage Display Peptide Library Kit (New England Biolabs, Beverly, Mass.) used in this study is based on a combinatorial library of random peptide 12-mers fused to a minor coat protein (pIII). […] The peptide is followed by a short spacer of four amino acid residues, the first three residues of which are glycine and the fourth of which is serine, and then the wild-type III sequence. The library consists of approximately 2.7×10^9 electroporated sequences, amplified once to yield approximately 55 copies of each sequence.
For in vivo biopanning, BALB/c mice 8 weeks of age were injected 3.4×10^10 pfu of phage into the heart. The animals were euthanized after 5 minutes, and the tissues (bone, bone marrow, kidney, liver, and spleen) were collected for analysis. The bound phage was eluted according the manufacturer's instructions. The eluted phage was titered, amplified, purified, and injected again at the same concentration.
The frequency of each peptide in bone and bone marrow was compared with its location in other tissues such as liver, kidney, lung, spleen, and brain. Thirteen unique peptide sequences eluted from bone and marrow were identified were identified by sequencing phage DNA. The peptides were synthesized using the polystyrene solid support on a Protein Technologies Symphony Multiple Channel Synthesizer.

C4-2 cells = assay: Prostate cancer cell adhesion to BMEC: C4-2; type: cell-based; conditions: FIG. 8; preliminary results
Description: as §1, §2

[4] = test system: bone and marrow tissue sections (mouse femur, rib); assay: Biotinylated peptide binding to bone/marrow tissue sections, Avidin-FITC fluorescence; conditions: biotinylated peptides; 1/50,000 dilution of Avidin-FITC
Description: Methods: Four-week old Swiss Webster mice were euthanized; the femurs were excised and decalcified in 0.25M EDTA in PBS solution for 5 days, and washed in PBS for 24 hours. The femoral shafts were obtained by cutting off the proximal and distal ends of the femur. The femoral shafts were placed in Tissue-Tek O.C.T. Compound (Sukura Finetek, Torrance, Calif.) and frozen at −20° C. overnight. Sections were cut at 10 μm serially with a cryomicrotome, rinsed with 1% BSA in PBS three times. To block non-specific reaction sections were incubated with Avidin/Biotin Blocking Kit (Vector Laboratories, Inc. Burlingame, Calif.) according to the manufacturer's instructions. Following another rinse with PBS, 150 μl 10 mM solution of each biotinylated peptide (L1, L2, L7, R1, R8) was added to the slides and incubated for 1 hour at room temperature. In negative controls, only PBS was added. After rewashes with 1% BSA, 150 μl of 1:50,000 dilution of Avidin-FITC was added to each slide and incubated overnight at 4° C.
The sections were washed with 1% BSA in PBS and mounted with Vectashield (Vector Laboratories Inc., Burlingame, Calif.). Fluorescence was visualized using a Nikon eclipse E600 microscope (Nikon, Melville, N.Y.) equipped with a 535 nm wavelength fluorescein filter. Images were obtained using a Sony DKC-5000 digital camera (Sony Electronics Inc.) and processed with Adobe Photoshop software (Adobe Systems Incorporated, San Jose, Calif.).
(§3) For localization of peptide binding to cells and tissue sections, biotinylated peptides were synthesized. Fluorescein-isothiocyanate (FITC) labeled Avidin was used to localize the peptides on cells in culture and in tissue sections in vitro by epiluminescence microscopy. In addition, the biotinylated peptides were detected at concentrations as low as 1 μM in slot blots.
Cryosections of decalcified femurs harvested from 4 week BALB/c mice were incubated with biotinylated peptide and Avidin-FITC. […] The distribution of fluorescence throughout the marrow was uneven. […] In control slides incubated with PBS without peptide, none of the cells could be detected by fluorescence (not shown). […]

[5] = test system: Membrane and cytosol fractions from human bone marrow endothelial cells; assay: Affinity chromatography of HBME fractions on immobilized peptide; type: binding; parameters: key to Identification of binding partners by affinity chromatography: HBME: ✓: Check marks indicate positive binding observed with FITC; −: a dash indicates a negative result; conditions: cell lysates
Description: (§4) Membrane and cytosol fractions from human bone marrow endothelial cells and bovine aortic endothelial cells were prepared and used to identify the components from within these fractions that bind to the peptides using affinity chromatography). […] Cell surface nucleolin is present at higher concentrations in actively dividing cells and is down regulated in cells when they become quiescent. Nucleolin is the apparent cell surface receptor of E-coli intimin-gamma. Cell bound intimin has been proposed to trigger a host cell response similar to the extension of filipodia when cells bind to laminin. […] Table 3 provides a summary of peptide-binding partners (putative receptors) identified by affinity chromatography of cell lysates.
Peptide Affinity Column Chromatography: Peptides identified from the phage display experiments in mouse bone and bone marrow were synthesized with an additional three-residue glycine linker and an N-terminal lysine residue. The lysine residue was used to specifically link the peptides to a support. Cell membranes from BMECs were solubilized with triton X-100. The solubilized proteins were passed through the peptide affinity column (total volume, 500 μL) followed by extensive washes with buffer. Retained proteins were eluted either with 100 mM solution of the same peptide as that immobilized on the column or with a wash of 0.1 N HCl-Glycine, pH 2.2. The eluates were analyzed by SDS PAGE and proteins observed in the gels were identified by LC/MS/MS.

[6] = test system: Bone marrow cells isolated from mouse femur; assay: Peptide binding to bone marrow cells in culture (Avidin-FITC); parameters: key to Localization of peptide binding: Marrow (cells in culture): ✓: Check marks indicate positive binding observed with FITC; −: a dash indicates a negative result; conditions: FITC
Description: as §3
(§5) Bone marrow cells isolated from mouse femur were lifted with ethylenediaminetetraacetic acid (EDTA) and trypsin, resuspended, and allowed to attach on fibronectin-coated chamber slides for Avidin-FITC staining. […] The D1 cell is a multipotential mesenchymal stem-like line that was isolated from bone marrow and shown to have the characteristics of osteoprogenitor cells. This cell line has been well established and used successfully in several in vitro and in vivo studies in our laboratory. Peptide binding to human bone marrow endothelial cells (HBME) and bovine aortic endothelial cells (BAEC) in culture was also tested using the same procedure.

[7] = test system: bovine aortic endothelial cells (BAEC); assay: Peptide binding to BAEC in culture (Avidin-FITC); parameters: key: ✓: Check marks indicate positive binding observed with FITC; −: a dash indicates a negative result
Description: as §3, §5

[8] = test system: Membrane and cytosol fractions from bovine aortic endothelial cells; assay: Affinity chromatography of BAEC fractions on immobilized peptide; type: binding
Description: as §4

With Nc1nc2c(ncn2COC(CO)CO)c(=O)[nH]1 [gencyclovir] the “Size of chimeric tumors” value (prostate cancer cells; mesenchymal cells and prostate cancer cells co-injected subcutaneously, prodrug treatment) was “diminished in size” and the “Serum PSA levels” value (prostate cancer cells; treated rats) was “drop in serum PSA levels”.
In the case of “ALA-THR-TRP-SER-HIS-HIS-LEU-SER-SER-ALA-GLY-LEU-GLY-GLY-GLY-SER (ATWSHHLSSAGLGGGS; listed as Homo sapiens) [Peptide R3]”, the “Effect on adhesion of LNCaP cells to BMEC” value (LNCaP cells) is reported as “dose-dependent inhibition of CaP cell invasion for both cell lines”, the “Effectiveness at stimulating osteogenesis and cortical bone repair” value (from here on “Effectiveness”) [1] is reported as “most effective at stimulating osteogenesis and cortical bone repair” and the “Concentrations at which peptide inhibits prostate cancer cell adhesion to BMEC” value [2] is reported as “at 100 μM only”. The “Effect on adherent BAEC (Experiment 1)” value [3] was “the cells had lifted completely and most of the cells disappeared from the surface of the slides, leaving a lot of cell debris”, the “PERCENT FREQUENCY” value (bone and bone marrow) was 34.5% and the “PHAGE SEQUENCE FREQUENCY (number of times the sequence was found in a group of plaques)” value (“PHAGE SEQUENCE FREQUENCY” below) (bone and bone marrow) was 10/29. The “Effect on adhesion of C4-2 cells to BMEC” value (C4-2 cells) was “dose-dependent inhibition of CaP cell invasion for both cell lines” and the “Binding to rib and long bone growth plate sections” value [4] was “no staining”.
In the case of “ASP-SER-SER-ASN-PRO-ILE-PHE-TRP-ARG-PRO-SER-SER-GLY-GLY-GLY-SER (DSSNPIFWRPSSGGGS; listed as Homo sapiens) [Peptide L19]”, the “Effect on adhesion of LNCaP cells to BMEC” value (LNCaP cells) is reported as “strongly inhibited the less aggressive LNCaP cell”, the “Histological appearance of repair tissue in the defect” value [1] is reported as “while some ossification and cortical bone regeneration has occurred, considerable amounts of gelfoam remains in the defect” and the “Effectiveness” value [1] is reported as “virtually no stimulatory effect on osteogenesis”. The “Effect on adherent BAEC (Experiment 1)” value [3] was “no effect, with results similar to PBS”, the “PERCENT FREQUENCY” value (bone and bone marrow) was 16.7% and the “PHAGE SEQUENCE FREQUENCY” value (bone and bone marrow) was 5/30. The “Effect on adhesion of C4-2 cells to BMEC” value (C4-2 cells) was “leaving the adhesion of the C4-2 cell line unaffected”.
For “GLN-ARG-SER-TRP-THR-LEU-ASP-SER-ALA-LEU-SER-MET-GLY-GLY-GLY-SER (QRSWTLDSALSMGGGS; listed as Homo sapiens) [Peptide L12]”, the “Identification of binding partners by affinity chromatography: HBME” value [5] was “−”, the “Effectiveness” value [1] was “most effective at stimulating osteogenesis and cortical bone repair” and the “Effect on adherent BAEC (Experiment 1)” value [3] was “the cells lifted and formed clusters that stained intensely”. The “Effect on adherent BAEC (Experiment 3)” value ([3]; 0.1M peptide, cells adherent about 6 hours) was “formed fewer clumps and considerably more debris”, the “Localization of peptide binding: Marrow (cells in culture)” value [6] was “✓” and the “PERCENT FREQUENCY” value (bone and bone marrow) was 16.7%. The “PHAGE SEQUENCE FREQUENCY” value (bone and bone marrow) was 5/30, the “Localization of peptide binding: BAEC” value [7] was “✓” and the “Binding partner from BAEC lysates” value ([8]; biotinylated peptide immobilized on avidin-agarose) was “vimentin was found to bind”. For the same molecule, the “Identification of binding partners by affinity chromatography: BAEC” value ([8]; cell lysates) was “✓Vimentin”.
